Experimental data from ChEMBL document CHEMBL1127065, “Nucleoside conjugates. 13. Synthesis and antitumor activity of 1-beta-D-arabinofuranosylcytosine conjugates of thioether lipids with improved water solubility” (J Med Chem, 1993).
Values joined by “and” are separate entries in the source; they are usually repeats but may differ in a detail not shown here. Equal values may be shown once.

Experiments:
Mus musculus [1] = test: Number of survivors in mice bearing ip-implanted L1210 lymphoid leukemia after 45 day; assay type: functional
[2] = Water solubility was determined by UV absorption at 273 nm; assay type: ADME
Mus musculus [3] = test: Percent increase in life span at 150 mg/kg (164 umol) per day; assay type: functional
Mus musculus [4] = test: Median T/C calculated based on survivors at 400 mg/kg (437 umol) per day against Ip-implanted L1210 lymphoid leukemia mice; assay type: functional
Mus musculus [5] = test: Median T/C calculated based on survivors at 150 mg/kg (164 umol) per day; assay type: functional
Mus musculus [6] = test: Percent increase in life span at 400 mg/kg (437 umol) per day; assay type: functional
Mus musculus [7] = test: Change in weight in mice bearing ip-implanted L1210 lymphoid leukemia on day 8 at 300 mg/kg or 292 umol/kg per day; assay type: functional
Mus musculus [8] = test: Number of survivors in mice bearing ip-implanted L1210 lymphoid leukemia after 45 day against Ip-implanted L1210 lymphoid leukemia mice; assay type: functional
Mus musculus [9] = test: Percent increase in life span at 300 mg/kg (292 umol) per day; assay type: functional
Mus musculus [10] = test: Median T/C calculated based on survivors at 300 mg/kg (292 umol) per day against Ip-implanted L1210 lymphoid leukemia mice; assay type: functional
Mus musculus [11] = test: Median T/C calculated based on survivors at 150 mg/kg (146 umol) per day against Ip-implanted L1210 lymphoid leukemia mice; assay type: functional
Mus musculus [12] = test: Percent increase in life span at 300 mg/kg (309 umol) per day; assay type: functional
Mus musculus [13] = test: Percent increase in life span at 150 mg/kg (154 umol) per day; assay type: functional
Mus musculus [14] = test: Median T/C calculated based on survivors at 300 mg/kg (309 umol) per day against Ip-implanted L1210 lymphoid leukemia mice; assay type: functional
Mus musculus [15] = test: Median T/C calculated based on survivors at 150 mg/kg (154 umol) per day against Ip-implanted L1210 lymphoid leukemia mice; assay type: functional
Mus musculus [16] = test: Percent increase in life span at 400 mg/kg (400 umol) per day; assay type: functional
Mus musculus [17] = test: Percent increase in life span at 150 mg/kg (150 umol) per day; assay type: functional
Mus musculus [18] = test: Median T/C calculated based on survivors at 400 mg/kg (400 umol) per day against Ip-implanted L1210 lymphoid leukemia mice; assay type: functional
Mus musculus [19] = test: Median T/C calculated based on survivors at 150 mg/kg (150 umol) per day against Ip-implanted L1210 lymphoid leukemia mice; assay type: functional
Mus musculus [20] = test: Median T/C calculated based on survivors at 71 mg/kg (292 umol) per day against Ip-implanted L1210 lymphoid leukemia mice; assay type: functional
Mus musculus [21] = test: Percent increase in life span at 71 mg/kg (292 umol) per day; assay type: functional
Mus musculus [22] = test: Change in weight in mice bearing ip-implanted L1210 lymphoid leukemia on day 8 at 100 mg/kg or 411 umol/kg per day; assay type: functional
Mus musculus [23] = test: Median T/C calculated based on survivors at 100 mg/kg (411 umol) per day against Ip-implanted L1210 lymphoid leukemia mice; assay type: functional
Mus musculus [24] = test: Median T/C calculated based on survivors at 200 mg/kg (822 umol) per day against Ip-implanted L1210 lymphoid leukemia mice; assay type: functional
Mus musculus [25] = test: Percent increase in life span at 100 mg/kg (411 umol) per day; assay type: functional
Mus musculus [26] = test: Change in weight in mice bearing ip-implanted L1210 lymphoid leukemia on day 8 at 200 mg/kg or 822 umol/kg per day; assay type: functional
Mus musculus [27] = test: Percent increase in life span at 200 mg/kg (822 umol) per day; assay type: functional
Mus musculus [28] = test: Change in weight in mice bearing ip-implanted L1210 lymphoid leukemia on day 8 at 71 mg/kg or 292 umol/kg per day; assay type: functional
Mus musculus [29] = test: Percent increase in life span at 300 mg/kg (300 umol) per day; assay type: functional
Mus musculus [30] = test: Median T/C calculated based on survivors at 300 mg/kg (300 umol) per day against Ip-implanted L1210 lymphoid leukemia mice; assay type: functional
Mus musculus [31] = test: Median T/C calculated based on survivors at 400 mg/kg (389 umol) per day; assay type: functional
Mus musculus [32] = test: Percent increase in life span at 400 mg/kg (389 umol) per day against Ip-implanted L1210 lymphoid leukemia mice; assay type: functional
Mus musculus [33] = test: Change in weight in mice bearing ip-implanted L1210 lymphoid leukemia on day 8 at 300 mg/kg or 309 umol/kg per day; assay type: functional
Mus musculus [34] = test: Percent increase in life span at 300 mg/kg (318 umol) per day; assay type: functional
Mus musculus [35] = test: Median T/C calculated based on survivors at 300 mg/kg (318 umol) per day against Ip-implanted L1210 lymphoid leukemia mice; assay type: functional
Mus musculus [36] = test: Percent increase in life span at 200 mg/kg (218 umol) per day; assay type: functional
Mus musculus [37] = test: Median T/C calculated based on survivors at 300 mg/kg (328 umol) per day against Ip-implanted L1210 lymphoid leukemia mice; assay type: functional
Mus musculus [38] = test: Median T/C calculated based on survivors at 200 mg/kg (218 umol) per day; assay type: functional
Mus musculus [39] = test: Percent increase in life span at 300 mg/kg (328 umol) per day; assay type: functional
Mus musculus [40] = test: Percent increase in life span at 400 mg/kg (411 umol) per day; assay type: functional
Mus musculus [41] = test: Median T/C calculated based on survivors at 400 mg/kg (411 umol) per day against Ip-implanted L1210 lymphoid leukemia mice; assay type: functional

CCCCCCCCCCCCCCCC(=O)OC(COP(=O)([O-])OP(=O)([O-])OC[C@H]1OC(n2ccc(N)nc2=O)[C@@H](O)[C@@H]1O)CSCCCCCCCCCC.[Na+].[Na+] (some centres not stated)
Survivors (Mus musculus [1]): 0 | solubility [2]: > 58 mM | ILS at 150 mg/kg (Mus musculus [3]): 200% | Median T/C (Mus musculus [4]): 15 | Median T/C (Mus musculus [5]): 21 | ILS at 400 mg/kg (Mus musculus [6]): 114%

CCCCCCCCCCCCCCCCCCSCC(COP(=O)([O-])OP(=O)([O-])OC[C@H]1OC(n2ccc(N)nc2=O)[C@@H](O)[C@@H]1O)OC(=O)CCCCCCCCCCCCCCC.[Na+].[Na+] (some centres not stated) [CYTOROS]
Weight change (Mus musculus [7]): -2.4 g mouse-1 | Survivors (Mus musculus [8]): 4 | Survivors (Mus musculus [1]): 1 | solubility [2]: 0.2 mM | ILS (Mus musculus [9]): >543% and >293% | Median T/C (Mus musculus [10]): >45 | Median T/C (Mus musculus [11]): 27.5

CCCCCCCCCCCCCCCCCCSCC(COP(=O)([O-])OP(=O)([O-])OC[C@H]1OC(n2ccc(N)nc2=O)[C@@H](O)[C@@H]1O)OC(=O)CCCCCCCCCCC.[Na+].[Na+] (some centres not stated)
ILS at 300 mg/kg (Mus musculus [12]): 213% | ILS at 150 mg/kg (Mus musculus [13]): 371% | Median T/C (Mus musculus [14]): 25 | Survivors (Mus musculus [1]): 1 and 2 | solubility [2]: > 54 mM | Median T/C (Mus musculus [15]): 33

CCCCCCCCCCCCCCCCCCSCC(COP(=O)([O-])OP(=O)([O-])OC[C@H]1OC(n2ccc(N)nc2=O)[C@@H](O)[C@@H]1O)OC(=O)CCCCCCCCCCCCC.[Na+].[Na+] (some centres not stated)
ILS at 400 mg/kg (Mus musculus [16]): 213% | Survivors (Mus musculus [1]): 1 and 3 | solubility [2]: > 62 mM | ILS at 150 mg/kg (Mus musculus [17]): > 464% | Median T/C (Mus musculus [18]): 25 | Median T/C (Mus musculus [19]): 39.5

Nc1ccn([C@@H]2O[C@H](CO)[C@@H](O)[C@@H]2O)c(=O)n1 [CYTARABINE]
Median T/C (Mus musculus [20]): 8 | ILS at 71 mg/kg (Mus musculus [21]): 23% | Weight change (Mus musculus [22]): -3.1 g mouse-1 | Median T/C (Mus musculus [23]): 16 | Survivors (Mus musculus [1]): 0 | Median T/C (Mus musculus [24]): 14 | ILS at 100 mg/kg (Mus musculus [25]): 129% | Weight change (Mus musculus [26]): -6.1 g mouse-1 | ILS at 200 mg/kg (Mus musculus [27]): 100% | Weight change (Mus musculus [28]): -3.8 g mouse-1

CCCCCCCCCCCCCCSCC(COP(=O)([O-])OP(=O)([O-])OC[C@H]1OC(n2ccc(N)nc2=O)[C@@H](O)[C@@H]1O)OC(=O)CCCCCCCCCCC.[Na+].[Na+] (some centres not stated)
Survivors (Mus musculus [1]): 0 | solubility [2]: > 50 mM | Median T/C (Mus musculus [4]): 16 | ILS at 400 mg/kg (Mus musculus [6]): 129%

CCCCCCCCCCCCCCCCSCC(COP(=O)([O-])OP(=O)([O-])OC[C@H]1OC(n2ccc(N)nc2=O)[C@@H](O)[C@@H]1O)OC(=O)CCCCCCCCCCCCCCC.[Na+].[Na+] (some centres not stated)
Survivors (Mus musculus [1]): 2 | solubility [2]: 0.2 mM | ILS at 300 mg/kg (Mus musculus [29]): > 436% | Median T/C (Mus musculus [30]): 37.5

CCCCCCCCCCCCCCCCCC(=O)OC(COP(=O)([O-])OP(=O)([O-])OC[C@H]1OC(n2ccc(N)nc2=O)[C@@H](O)[C@@H]1O)CSCCCCCCCCCCCCCCCC.[Na+].[Na+] (some centres not stated)
Survivors (Mus musculus [1]): 3 | solubility [2]: 0.2 mM | Median T/C (Mus musculus [31]): >43.5 | ILS at 400 mg/kg (Mus musculus [32]): > 521%

CCCCCCCCCCCCCCCCSCC(COP(=O)([O-])OP(=O)([O-])OC[C@H]1OC(n2ccc(N)nc2=O)[C@@H](O)[C@@H]1O)OC(=O)CCCCCCCCCCCCC.[Na+].[Na+] (some centres not stated)
ILS at 300 mg/kg (Mus musculus [12]): 386% | Median T/C (Mus musculus [14]): 34 | Survivors (Mus musculus [1]): 2 | solubility [2]: > 53 mM | Weight change (Mus musculus [33]): -1.8 g mouse-1

CCCCCCCCCCCCCCCCSCC(COP(=O)([O-])OP(=O)([O-])OC[C@H]1OC(n2ccc(N)nc2=O)[C@@H](O)[C@@H]1O)OC(=O)CCCCCCCCCCC.[Na+].[Na+] (some centres not stated)
ILS at 300 mg/kg (Mus musculus [34]): 178% | Survivors (Mus musculus [1]): 2 | solubility [2]: > 64 mM | Median T/C (Mus musculus [35]): 19.5

CCCCCCCCCCCCCC(=O)OC(COP(=O)([O-])OP(=O)([O-])OC[C@H]1OC(n2ccc(N)nc2=O)[C@@H](O)[C@@H]1O)CSCCCCCCCCCCCC.[Na+].[Na+] (some centres not stated)
ILS at 200 mg/kg (Mus musculus [36]): 463% | Median T/C (Mus musculus [37]): 14.5 | solubility [2]: > 68 mM | Median T/C (Mus musculus [38]): >45 | ILS at 300 mg/kg (Mus musculus [39]): 81%

CCCCCCCCCCCCCCSCC(COP(=O)([O-])OP(=O)([O-])OC[C@H]1OC(n2ccc(N)nc2=O)[C@@H](O)[C@@H]1O)OC(=O)CCCCCCCCCCCCC.[Na+].[Na+] (some centres not stated)
ILS at 300 mg/kg (Mus musculus [34]): 243% | Survivors (Mus musculus [1]): 2 | solubility [2]: > 60 mM | Median T/C (Mus musculus [35]): 24

CCCCCCCCCCCCCCCC(=O)OC(COP(=O)([O-])OP(=O)([O-])OC[C@H]1OC(n2ccc(N)nc2=O)[C@@H](O)[C@@H]1O)CSCCCCCCCCCCCCCC.[Na+].[Na+] (some centres not stated)
ILS at 150 mg/kg (Mus musculus [13]): 321% | ILS (Mus musculus [40]): >421% and 393% | Survivors (Mus musculus [1]): 3 and 1 and 2 | solubility [2]: 1.5 mM | Median T/C (Mus musculus [15]): 29.5 | Median T/C (Mus musculus [41]): >36.5 and 34.5 | Weight change (Mus musculus [33]): 0.5 g mouse-1
